Experimental findings from patent publication US8455543B2, “Platinum complexes and methods for inhibiting tumor cell proliferation” (University of South Florida, priority 2004, dated 2013) are described below.

Read-outs that look alike come from different tables or passages of the source.

Holding throughout (assay): MTT assay, growth inhibition of human tumor cells
Holding throughout (type): cell-based
For orientation: Tetrazolium assays rely on reduction of a dye to a coloured formazan, in cell work by metabolically active cells.

One experiment has as its system Calu-1. To be noted: Calu-1 cells, 4 days treatment, several values = separate determinations.
For a further experiment, the system named is Panc-1.
In a further experiment the test system is A549.
Where [1] appears, read: Homo sapiens, 96 h, MTT assay, Panc-1 cells, 4 days treatment, several values = separate determinations.
Setting [2] is: MTT assay, Panc-1 cells, 4 days treatment, several values = separate determinations.

With `O=c1[nH]cc(F)c(=O)[nH]1` [5-FU, 5-fluorouracil, reference compound], the IC50 in the experiment on Calu-1 (Homo sapiens, 96 h) came out at 250 µM; with Panc-1 (setting [1]) it was 5 µM.

On to `NC(=O)NO` [hydroxyurea, reference compound], for which the IC50 in the experiment with Calu-1 (Homo sapiens, 96 h) was greater than 250 µM; in the experiment on Panc-1 (setting [1]) it was 1.3 µM.

“Pt^IV(en) (HOHN—CO—NH2)(NO2) 5-FU [CPA-13]” yielded an IC50 in the experiment on Panc-1 (setting [2]) of 2.3 µM.

Take “[Cis-Pt IV(NH3)2(Cl)2(NO2) (5-FU)] [JP3]”: in the experiment on Panc-1 (setting [2]), the 50% inhibitory concentration (IC50) was determined as 2.6 µM.

Compound “[Cis-Pt IV(NH3)2(Cl)2(NO2) (OP(-salicylate)(OH)O)] [JP6]” had an IC50 in the experiment with Panc-1 of 5.5 µM.

On to cis-[Pt^IV(NH3)2Cl2NO2-5FU [CPA-14], for which the IC50 with Calu-1 stood at 13 µM.

“cis-[Pt^IV(NH3)2Cl2NO2-salicylate] [CPA-19]”: the IC50 in the experiment with A549 is 37 µM; with Panc-1, 20 µM.

Usually IC50 stands for the point on the concentration scale where inhibition reaches its midpoint. Read a high IC50 as weaker potency.
